Laboratory results published in US20140249135A1, “PIM KINASE INHIBITORS AND METHODS OF THEIR USE” (NOVARTIS AG, priority 2007, published 2014).

Tests used:
Format in all cases: biochemical
[1] = target: Pim1 kinase (Homo sapiens, UniProt P11309); assay: Pim1 ATP depletion assay; details: Pim1 ATP depletion assay; read-out: IC50 (μM) PIM1;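 further: Luciferase-luciferin luminescence readout of residual ATP after PIM1 transfers phosphate to a peptide substrate, 40 µM ATP added, reaction run to roughly half ATP consumption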
[2] = target: Pim2 kinase (Homo sapiens, UniProt Q9P1W9); assay: Pim2 ATP depletion assay; details: read-out: IC50 (μM) PIM2;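 further: Luciferase-based luminescent readout of ATP remaining after PIM2 phosphorylates a BAD peptide, final 5 nM enzyme, 4 µM ATP, 10 µM peptide, 2.5% DMSO, run to roughly half ATP consumption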
[3] = target: Pim3 kinase (Homo sapiens, UniProt Q86V86); assay: Pim3 ATP depletion assay; details: read-out: IC50 (μM) PIM3

Chain of Pim1 kinase (P11309 whole entry): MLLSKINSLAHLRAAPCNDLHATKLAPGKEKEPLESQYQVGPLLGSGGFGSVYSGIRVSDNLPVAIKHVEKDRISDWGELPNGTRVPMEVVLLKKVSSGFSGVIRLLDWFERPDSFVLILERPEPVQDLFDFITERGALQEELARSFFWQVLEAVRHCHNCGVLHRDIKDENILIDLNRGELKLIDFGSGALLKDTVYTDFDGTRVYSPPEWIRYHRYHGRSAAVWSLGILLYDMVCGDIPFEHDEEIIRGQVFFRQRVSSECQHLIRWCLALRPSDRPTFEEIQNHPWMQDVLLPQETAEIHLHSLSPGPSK
Chain of Pim2 kinase (Q9P1W9 whole entry): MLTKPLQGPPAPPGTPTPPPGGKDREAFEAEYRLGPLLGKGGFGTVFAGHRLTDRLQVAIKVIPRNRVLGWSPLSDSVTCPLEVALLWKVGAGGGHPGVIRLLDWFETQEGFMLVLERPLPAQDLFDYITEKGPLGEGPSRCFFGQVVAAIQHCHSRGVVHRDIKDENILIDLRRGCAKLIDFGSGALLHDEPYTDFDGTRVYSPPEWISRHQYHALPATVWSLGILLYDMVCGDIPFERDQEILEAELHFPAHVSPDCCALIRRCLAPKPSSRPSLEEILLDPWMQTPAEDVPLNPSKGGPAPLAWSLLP

Structure (SMILES)	IC50 [1]	IC50 [2]	IC50 [3]
Nc1cc(F)c(-c2cccc(S(N)(=O)=O)c2)nc1C(=O)Nc1cnccc1N1CCC[C@H](N)C1 [Example 497, 3-Amino-5-fluoro-6-(3-sulfamoyl-phenyl)-pyridine-2-carboxylic acid (3-amino-3,4,5,6-tetrahydro-2H-[1,4′]bipyridinyl-3′-yl)-amide]	< 1 µM	< 1 µM	< 1 µM
CS(=O)(=O)Nc1cccc(-c2nc(C(=O)Nc3cnccc3N3CCC[C@H](N)C3)c(N)cc2F)c1 [Example 498, 3-Amino-5-fluoro-6-(3-methanesulfonylamino-phenyl)-pyridine-2-carboxylic acid (3-amino-3,4,5,6-tetrahydro-2H-[1,4′]bipyridinyl-3′-yl)-amide]	< 1 µM	< 1 µM	< 1 µM
Nc1cc(F)c(-c2ccccc2)nc1C(=O)Nc1cnccc1N1CCC[C@H](N)C1 [Example 499, 3-Amino-5-fluoro-6-phenyl-pyridine-2-carboxylic acid (3-amino-3,4,5,6-tetrahydro-2H-[1,4′]bipyridinyl-3′-yl)-amide]	< 1 µM	< 1 µM	< 1 µM
COc1ccc(F)cc1-c1nc(C(=O)Nc2cnccc2N2CCC[C@H](N)C2)c(N)cc1F [Example 501, 3-Amino-5-fluoro-6-(5-fluoro-2-methoxy-phenyl)-pyridine-2-carboxylic acid (3-amino-3,4,5,6-tetrahydro-2H-[1,4′]bipyridinyl-3′-yl)-amide]	< 1 µM	< 1 µM	< 1 µM
COc1ccc(F)c(-c2nc(C(=O)Nc3cnccc3N3CCC[C@H](N)C3)c(N)cc2F)c1 [Example 502, 3-Amino-5-fluoro-6-(2-fluoro-5-methoxy-phenyl)-pyridine-2-carboxylic acid (3-amino-3,4,5,6-tetrahydro-2H-[1,4′]bipyridinyl-3′-yl)-amide]	< 1 µM	< 1 µM	< 1 µM
CCCCOc1ccc(F)c(-c2nc(C(=O)Nc3cnccc3N3CCC[C@H](N)C3)c(N)cc2F)c1F [Example 506, 3-Amino-6-(3-butoxy-2,6-difluoro-phenyl)-5-fluoro-pyridine-2-carboxylic acid (3-amino-3,4,5,6-tetrahydro-2H-[1,4′]bipyridinyl-3′-yl)-amide]	< 1 µM	< 1 µM	< 1 µM
CC(C)NC(=O)c1ccc(F)c(-c2nc(C(=O)Nc3cnccc3N3CCC[C@H](N)C3)c(N)cc2F)c1 [Example 508, 3-Amino-5-fluoro-6-(2-fluoro-5-isopropylcarbamoyl-phenyl)-pyridine-2-carboxylic acid (3-amino-3,4,5,6-tetrahydro-2H-[1,4′]bipyridinyl-3′-yl)-amide]	< 1 µM	< 1 µM	< 1 µM
Cc1cccc(C)c1-c1nc(C(=O)Nc2cnccc2N2CCC[C@H](N)C2)c(N)cc1F [Example 509, 3-Amino-6-(2,6-dimethyl-phenyl)-5-fluoro-pyridine-2-carboxylic acid (3-amino-3,4,5,6-tetrahydro-2H-[1,4′]bipyridinyl-3′-yl)-amide]	< 1 µM	< 1 µM	< 1 µM
COc1ccc(F)c(-c2nc(C(=O)Nc3cnccc3N3CCC[C@H](N)C3)c(N)cc2F)c1F [Example 510, 3-Amino-6-(2,6-difluoro-3-methoxy-phenyl)-5-fluoro-pyridine-2-carboxylic acid (3-amino-3,4,5,6-tetrahydro-2H-[1,4′]bipyridinyl-3′-yl)-amide]	< 1 µM	< 1 µM	< 1 µM
COc1ncccc1-c1nc(C(=O)Nc2cnccc2N2CCC[C@H](N)C2)c(N)cc1F [Example 511, 5-Amino-3-fluoro-2′-methoxy-[2,3′]bipyridinyl-6-carboxylic acid (3-amino-3,4,5,6-tetrahydro-2H-[1,4′]bipyridinyl-3′-yl)-amide]	< 1 µM	< 1 µM	< 1 µM
Nc1cc(-c2ccncc2NC(=O)c2cccc(-c3c(F)cccc3F)n2)nc(C(F)(F)F)n1 [Example 528, 6-(2,6-Difluoro-phenyl)-pyridine-2-carboxylic acid [4-(6-amino-2-trifluoromethyl-pyrimidin-4-yl)-pyridin-3-yl]-amide]	< 1 µM	< 1 µM	< 1 µM
Nc1cc(-c2ccncc2NC(=O)c2cccc(-c3ccccc3F)n2)nc(C(F)(F)F)n1 [Example 529, 6-(2-Fluoro-phenyl)-pyridine-2-carboxylic acid [4-(6-amino-2-trifluoromethyl-pyrimidin-4-yl)-pyridin-3-yl]-amide]	< 1 µM	< 1 µM	< 1 µM

Results, then the compound that gave them:

IC50 [1]	IC50 [2]	IC50 [3]	Structure (SMILES)
< 1 µM	< 1 µM	< 1 µM	CCOc1ccc(F)c(-c2nc(C(=O)Nc3cnccc3N3CCC[C@H](N)C3)c(N)cc2F)c1F [Example 495, 3-Amino-6-(3-ethoxy-2,6-difluoro-phenyl)-5-fluoro-pyridine-2-carboxylic acid (3-amino-3,4,5,6-tetrahydro-2H-[1,4′]bipyridinyl-3′-yl)-amide]
< 1 µM	< 1 µM	< 1 µM	CC(=O)Nc1cccc(-c2nc(C(=O)Nc3cnccc3N3CCC[C@H](N)C3)c(N)cc2F)c1 [Example 500, 6-(3-Acetylamino-phenyl)-3-amino-5-fluoro-pyridine-2-carboxylic acid (3-amino-3,4,5,6-tetrahydro-2H-[1,4′]bipyridinyl-3′-yl)-amide]
< 1 µM	< 1 µM	< 1 µM	CC(C)NC(=O)c1ccc(F)c(-c2ccc(N)c(C(=O)Nc3cnccc3N3CCC[C@H](N)C3)n2)c1F [Example 503, 3-Amino-6-(2,6-difluoro-3-isopropylcarbamoyl-phenyl)-pyridine-2-carboxylic acid (3-amino-3,4,5,6-tetrahydro-2H-[1,4′]bipyridinyl-3′-yl)-amide]
< 1 µM	< 1 µM	< 1 µM	COC(=O)c1nc(-c2ccc(N)c(C(=O)Nc3cnccc3N3CCC[C@H](N)C3)n2)c(F)cc1N [Example 504, 5,5′-Diamino-6′-(3-amino-3,4,5,6-tetrahydro-2H-[1,4′]bi-pyridinyl-3′-ylcarbamoyl)-3-fluoro-[2,2′]bipyridinyl-6-carboxylic acid methyl ester]
< 1 µM	< 1 µM	< 1 µM	COc1cncc(-c2nc(C(=O)Nc3cnccc3N3CCC[C@H](N)C3)c(N)cc2F)n1 [Example 507, 3-Amino-5-fluoro-6-(6-methoxy-pyrazin-2-yl)-pyridine-2-carboxylic acid (3-amino-3,4,5,6-tetrahydro-2H-[1,4′]bipyridinyl-3′-yl)-amide]
< 1 µM	< 1 µM	< 1 µM	COc1cccc(-c2nc(C(=O)Nc3cnccc3N3CCC[C@H](N)C3)c(N)cc2F)n1 [Example 512, 5-Amino-3-fluoro-6′-methoxy-[2,2′]bipyridinyl-6-carboxylic acid (3-amino-3,4,5,6-tetrahydro-2H-[1,4′]bipyridinyl-3′-yl)-amide]
< 1 µM	< 1 µM	< 1 µM	Nc1cc(F)c(-c2ccncc2)nc1C(=O)Nc1cnccc1N1CCC[C@H](N)C1 [Example 513, 5-Amino-3-fluoro-[2,4′]bi-pyridinyl-6-carboxylic acid (3-amino-3,4,5,6-tetrahydro-2H-[1,4′]bipyridinyl-3′-yl)-amide]
< 1 µM	< 1 µM	< 1 µM	Nc1ccc(-c2nc(C(=O)Nc3cnccc3N3CCC[C@H](N)C3)c(N)cc2F)cn1 [Example 514, 5,6′-Diamino-3-fluoro-[2,3′]bi-pyridinyl-6-carboxylic acid (3-amino-3,4,5,6-tetrahydro-2H-[1,4′]bipyridinyl-3′-yl)-amide]
< 1 µM	< 1 µM	< 1 µM	CN(C)C(=O)c1ccc(F)c(-c2nc(C(=O)Nc3cnccc3N3CCC[C@H](N)C3)c(N)cc2F)c1 [Example 515, 3-Amino-6-(5-dimethylcarbamoyl-2-fluoro-phenyl)-5-fluoro-pyridine-2-carboxylic acid (3-amino-3,4,5,6-tetrahydro-2H-[1,4′]bipyridinyl-3′-yl)-amide]
< 1 µM	< 1 µM	< 1 µM	Nc1cc(-c2ccncc2NC(=O)c2cccc(-c3ccc(N4CCNCC4)cc3)n2)nc(C(F)(F)F)n1 [Example 525, 6-(4-Piperazin-1-yl-phenyl)-pyridine-2-carboxylic acid [4-(6-amino-2-trifluoromethyl-pyrimidin-4-yl)-pyridin-3-yl]-amide]
< 1 µM	< 1 µM	< 1 µM	Nc1cc(-c2ccncc2NC(=O)c2nc(C3=CCNCC3)ccc2N)nc(C(F)(F)F)n1 [Example 526, 5-Amino-1′,2′,3′,6′-tetrahydro-[2,4′]bipyridinyl-6-carboxylic acid [4-(6-amino-2-trifluoromethyl-pyrimidin-4-yl)-byridin-3-yl]-amide]
< 1 µM	< 1 µM	< 1 µM	Nc1cc(-c2ccncc2NC(=O)c2cccc(-c3ccc(F)cc3F)n2)nc(C(F)(F)F)n1 [Example 527, 6-(2,4-Difluoro-phenyl)-pyridine-2-carboxylic acid [4-(6-amino-2-trifluoromethyl-pyrimidin-4-yl)-pyridin-3-yl]-amide]
< 1 µM	< 1 µM	< 1 µM	Nc1cc(-c2ccncc2NC(=O)c2cccc(-c3ccccc3)n2)nc(C(F)(F)F)n1 [Example 530, 6-Phenyl-pyridine-2-carboxylic acid [4-(6-amino-2-trifluoromethyl-pyrimidin-4-yl)-pyridin-3-yl]-amide]
< 1 µM	< 1 µM	< 1 µM	Nc1cc(-c2ccncc2NC(=O)c2nc(-c3ccccc3)ccc2N)nc(C(F)(F)F)n1 [Example 531, 3-Amino-6-phenyl-pyridine-2-carboxylic acid [4-(6-amino-2-trifluoromethyl-pyrimidin-4-yl)-pyridin-3-yl]-amide]
